Source: ChEMBL document CHEMBL1141189, “Preparation and biological evaluation of indole, benzimidazole, and thienopyrrole piperazine carboxamides: potent human histamine h(4) antagonists” (J Med Chem, 2005)

Legend:
[1] = In vitro half life in human S9 fraction; type: ADME, Liver
[2] = In vitro half life in rat liver microsomes; type: ADME, Microsome
[3] = In vitro half life in rat S9 fraction; type: ADME, Liver
Rattus norvegicus [4] = assay: Maximum concentration in rat administered with 10 mg/kg, po; type: ADME, organism-based; parameters: dose 10 mg/kg, route oral; details: in vivo
[5] = Half life in rat administered with 10 mg/kg, po; type: ADME, organism-based; parameters: dose 10 mg/kg, route oral; details: in vivo
Rattus norvegicus [6] = assay: Area under curve in rat administered with 10 mg/kg, po; type: ADME, organism-based; parameters: dose 10 mg/kg, route oral; details: in vivo
[7] = Oral bioavailability in rat administered with 10 mg/kg, po; type: ADME, organism-based; details: in vivo
[8] = In vitro half life in human liver microsomes; type: ADME, Microsome
Histamine H4 receptor [9] = target: T1, Histamine H4 receptor (Homo sapiens, UniProt Q9H3N8); assay: Displacement of [3H]histamine from recombinant human histamine H4 receptor in SK-N-MC cells; type: cell-based
T1 sequence (Q9H3N8 whole entry): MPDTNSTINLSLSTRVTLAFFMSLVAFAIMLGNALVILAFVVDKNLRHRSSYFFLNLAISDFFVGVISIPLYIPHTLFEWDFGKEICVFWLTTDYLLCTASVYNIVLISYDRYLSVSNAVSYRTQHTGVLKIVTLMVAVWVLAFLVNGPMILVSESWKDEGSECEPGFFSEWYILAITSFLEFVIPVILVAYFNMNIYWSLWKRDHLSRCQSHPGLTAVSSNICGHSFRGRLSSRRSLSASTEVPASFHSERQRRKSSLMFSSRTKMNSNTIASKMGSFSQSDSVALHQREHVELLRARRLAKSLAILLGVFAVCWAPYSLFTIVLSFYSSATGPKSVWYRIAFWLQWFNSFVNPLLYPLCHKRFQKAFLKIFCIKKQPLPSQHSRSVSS

Histamine H4 receptor [10] = target: T1, Histamine H4 receptor; assay: Antagonistic activity at human histamine H4 receptor in SK-N-MC cells by inhibition of forskolin-stimulated cAMP-mediated reporter gene activity; type: functional, cell-based; details: for Kb: read-out: pA2 (converted)
Histamine H3 receptor = Histamine H3 receptor (Homo sapiens, UniProt Q9Y5N1); assay: Binding affinity to histamine H3 receptor
Histamine H3 receptor, sequence (Q9Y5N1 whole entry): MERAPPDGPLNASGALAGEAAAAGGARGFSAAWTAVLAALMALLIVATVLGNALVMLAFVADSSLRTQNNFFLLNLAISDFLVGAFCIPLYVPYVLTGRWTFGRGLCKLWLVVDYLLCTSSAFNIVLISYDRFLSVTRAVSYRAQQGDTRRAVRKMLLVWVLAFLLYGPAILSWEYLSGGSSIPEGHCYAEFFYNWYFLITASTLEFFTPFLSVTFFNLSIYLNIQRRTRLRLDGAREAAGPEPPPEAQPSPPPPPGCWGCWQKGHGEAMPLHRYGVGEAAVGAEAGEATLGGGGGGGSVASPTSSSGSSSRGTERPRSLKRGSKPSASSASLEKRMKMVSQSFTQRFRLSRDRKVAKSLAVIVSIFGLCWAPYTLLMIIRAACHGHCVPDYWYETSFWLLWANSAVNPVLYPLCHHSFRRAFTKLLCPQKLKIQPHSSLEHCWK

[11] = Half life in rat administered with 2 mg/kg, iv; type: ADME, organism-based; parameters: dose 2 mg/kg, route intravenous; details: in vivo

Structure (SMILES)	Ki (Histamine H4 receptor [9])	Kb (Histamine H4 receptor [10])	other results
CN1CCN(C(=O)c2cc3cc(Cl)ccc3[nH]2)CC1 [JNJ-7777120]	–	–	half-life [1]: 1.67 h; half-life [2]: 0.075 h; half-life [3]: 1.07 h; Cmax (Rattus norvegicus [4]): 1800 nM; half-life [5]: 2.3 h; AUC (Rattus norvegicus [6]): 7 uM.h/L; bioavailability [7]: 22%; half-life [8]: 0.467 h
CN1CCN(C(=O)c2cc3sccc3[nH]2)CC1	90 nM	–	–
Cc1c(F)ccc2[nH]c(C(=O)N3CCN(C)CC3)nc12	7 nM	15.8 nM	–
CN1CCN(C(=O)c2cc3c(Cl)c(Cl)ccc3[nH]2)CC1	–	6.31 nM	–
O=C(c1cc2ccccc2[nH]1)N1CCNCC1	–	–	Ki (Histamine H3 receptor): 9000 nM
CN1CCN(C(=O)c2nc3c(N)cccc3[nH]2)CC1	244 nM	–	–
Cc1c(Cl)sc2cc(C(=O)N3CCN(C)CC3)[nH]c12	–	20 nM	–
CN1CCN(C(=O)c2cc3cccc(Br)c3[nH]2)CC1	–	126 nM	–
CN1CCN(C(=O)c2cc3ccsc3[nH]2)CC1	90 nM	–	–
CN1CCN(C(=O)c2nc3cc(Cl)cc(Cl)c3[nH]2)CC1	136 nM	–	–
CN1CCN(C(=O)c2nc3cc(Cl)ccc3[nH]2)CC1	26 nM	20 nM	half-life [1]: 1.67 h; half-life [2]: 0.2 h; half-life [3]: 1.47 h; Cmax (Rattus norvegicus [4]): 1800 nM; half-life [5]: 1 h; AUC (Rattus norvegicus [6]): 2.1 uM.h/L; bioavailability [7]: 27%; Ki (Histamine H3 receptor): 14100 nM; half-life [8]: 1.67 h
CN1CCN(C(=O)c2cc3cccc(Cl)c3[nH]2)CC1	–	79.4 nM	–
Cc1ccc2[nH]c(C(=O)N3CCN(C)CC3)cc2c1	–	20 nM	–
Cc1cc(Cl)c2nc(C(=O)N3CCN(C)CC3)[nH]c2c1	23 nM	126 nM	–
CN1CCN(C(=O)c2nc3cc(C(F)(F)F)ccc3[nH]2)CC1	427 nM	–	–
CN1CCN(C(=O)c2nc3c(F)c(F)ccc3[nH]2)CC1	49 nM	79.4 nM	–
Cc1c(F)ccc2[nH]c(C(=O)N3CCN(C)CC3)cc12	27 nM	20 nM	–

Structure (SMILES)	Ki (Histamine H4 receptor [9])	Kb (Histamine H4 receptor [10])	other results
Cc1cc(Cl)c2[nH]c(C(=O)N3CCN(C)CC3)cc2c1	33 nM	50.1 nM	–
CN1CCN(C(=O)c2cc3cc(Cl)sc3[nH]2)CC1	–	12.6 nM	half-life [3]: 0.783 h; Cmax (Rattus norvegicus [4]): < 100 nM; half-life [11]: 6 min; half-life [8]: 0.883 h
CN1CCN(C(=O)c2cc3cc(Br)ccc3[nH]2)CC1	–	15.8 nM	–
Cc1cccc2cc(C(=O)N3CCN(C)CC3)[nH]c12	–	–	pA2 (Histamine H4 receptor [10]): 7.9
CN1CCN(C(=O)c2nc3cc(F)ccc3[nH]2)CC1	19 nM	50.1 nM	–
Cc1cccc2[nH]c(C(=O)N3CCN(C)CC3)nc12	30 nM	25.1 nM	–
CN1CCN(C(=O)c2cc3cc(O)ccc3[nH]2)CC1	–	79.4 nM	–
CN1CCN(C(=O)c2cc3cc(F)ccc3[nH]2)CC1	–	20 nM	–
CN1CCN(C(=O)c2cc3cc(F)cc(F)c3[nH]2)CC1	–	20 nM	–
CN1CCN(C(=O)c2nc3ccccc3[nH]2)CC1	35 nM	63.1 nM	–
CN1CCN(C(=O)c2cc3cccc(N)c3[nH]2)CC1	–	7.94 nM	–
CN1CCN(C(=O)c2cc3cc(C(F)(F)F)ccc3[nH]2)CC1	412 nM	–	–
CN1CCN(C(=O)c2cc3sc(Cl)cc3[nH]2)CC1	–	50.1 nM	–
CN1CCN(C(=O)c2cc3cc(Cl)cc(Cl)c3[nH]2)CC1	–	10 nM	–
Cc1csc2cc(C(=O)N3CCN(C)CC3)[nH]c12	–	31.6 nM	–
CN1CCN(C(=O)c2cc3c(Br)cccc3[nH]2)CC1	–	158 nM	–
Cc1cc(C)c2[nH]c(C(=O)N3CCN(C)CC3)cc2c1	–	31.6 nM	–
